The data set has as its system Hepatocytes. Put plainly: extracorporeal hepatic metabolism in the hepatocyte bioreactor attached to an ahepatic pig. Type of data set: in vitro ADME, outbred Yorkshire/white pig. The note with it: administered into the ultrafiltrate at the inlet of the bioreactor; metabolites 7-OH-coumarin and monoethylglycinexylidide (MEGX) measured at the outlets of the bioreactors.

Metabolism data for one molecule are collected here from patent publication EP0579804B1, “BIOLOGICAL ARTIFICIAL LIVER” (MONSANTO COMPANY, priority 1992, dated 1993).

Procedure: The medium used was the hormone-supplemented Waymouth medium as described in Example 1. To accommodate 2 to 5 billion cells, the bioreactor was scaled up to two containment vessels, each with an internal diameter of 40 mm and a height of 100 mm. Glass beads of approx. 2 mm diameter and a total volume of 250 ml per containment vessel were used. Medium was perfused at a recycle rate of 360 ml/min.. […] The bioreactor was attached to an ahepatic pig (liver removed by surgery to mimic total hepatic failure) at approx. 2 hrs. after hepatocyte inoculation. Blood from the left femoral artery was directed into a Minntech hemoconcentrator. A 12 fringe elecath canula was inserted into the femoral artery and connected to a 1/4" PVC tubing to the hemoconcentrator. The hemoconcentrator separated the blood into a cell free ultrafiltrate fraction, and a blood cell fraction. The blood cell fraction was returned to the femoral vein via a similar tubing. The ultrafiltrate exited the hemoconcentrator via a 1/4" PVC tubing and entered the hepatocyte bioreactor system with the flow rate adjusted to 40 ml/min. using a roller pump. […] The respective metabolites, 7-OH-coumarin and monoethylglycinexylidide (MEGX), were measured at the outlets of the bioreactors before the ultrafiltrate was returned to the animal.

Consider `CCOc1ccc2ccc(=O)oc2c1` [7-ethoxycoumarin], for which the metabolism result was “Significant metabolism”.
